Laboratory results published in US20020137929A1, “1 - (3-heterocyclylphenyl) isothiourea, -isourea, -guanidine and -amidine herbicidal agents” (Intellectual Property Department, BASF Aktiengesellschaft, priority 1998, published 2002).

Legend:
[1] = tested on: ABUTH (Velvetleaf); experiment: Postemergence herbicidal evaluation; assay type: in vivo, Abutilon theophrasti; details: postemergence
Outline: (§1)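 Scores (0–9) reflect plant stand, vigor, malformation, size, chlorosis and general appearance relative to control, read 4 to 5 weeks after treatment and averaged where tests were repeated. Application: about 0.0156–0.500 kg/ha sprayed at 40 psi onto two-week seedlings.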

[2] = tested on: IPOHE (Morningglory, Ivyleaf); experiment: Postemergence herbicidal evaluation; assay type: in vivo, Ipomoea hederacea; details: postemergence
Outline: as §1

[3] = tested on: TRZAWR (Wheat, Winter, cv Riband); experiment: Postemergence herbicidal evaluation; assay type: in vivo, Triticum aestivum; details: postemergence
Outline: as §1

[4] = tested on: CHEAL (Lambsquarters, Common); experiment: Preemergence herbicidal evaluation; assay type: in vivo, Chenopodium album; details: rated 4-5 weeks after treatment
Text: (§2) Results of herbicide evaluation are expressed on a rating scale (0-9). The scale is based upon a visual observation of plant stand, vigor, malformation, size, chlorosis and overall plant appearance as compared with a control.
(§3) The preemergence herbicidal activity of the test compounds of the present invention is exemplified by the following tests in which the seeds of a variety of monocotyledonous and dicotyledonous plants are separately mixed with potting soil and planted on top of approximately one inch of soil in separate pint cups. After planting, the cups are sprayed with the selected aqueous acetone solution containing test compound in sufficient quantity to provide the equivalent of about 0.0156 to 0.500 kg per hectare of test compound per cup. The treated cups are then placed on greenhouse benches, watered and cared for in accordance with conventional greenhouse procedures. From four to five weeks after treatment, the tests are terminated and each cup is examined and rated according to the rating system provided in Example 37.
(§4) The compounds evaluated are reported by compound number given in Example 37.

[5] = tested on: IPOHE (Morningglory, Ivyleaf); experiment: Preemergence herbicidal evaluation; assay type: in vivo, Ipomoea hederacea; details: rated 4-5 weeks after treatment
Text: as §2, §3, §4

[6] = tested on: ECHCG (Barnyardgrass); experiment: Preemergence herbicidal evaluation; assay type: in vivo, Echinochloa crus-galli; details: rated 4-5 weeks after treatment
Text: as §2, §3, §4

[7] = tested on: SETVI (Foxtail, Green); experiment: Preemergence herbicidal evaluation; assay type: in vivo, Setaria viridis; details: rated 4-5 weeks after treatment
Outline: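 Steps: mix seeds into potting soil; plant atop ~1 inch soil; spray compound in aqueous acetone (~0.0156-0.500 kg/ha equivalent); maintain in greenhouse with watering; rate visually 0-9 versus control at 4-5 weeks.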

[8] = tested on: ORYSAT (Rice, Tebonnet); experiment: Preemergence herbicidal evaluation; assay type: in vivo, Oryza sativa, (L.) Tebonnet; details: rated 4-5 weeks after treatment
Text: as §2, §3, §4

[9] = tested on: TRZAWR (Wheat, Winter, cv Riband); experiment: Preemergence herbicidal evaluation; assay type: in vivo, Triticum aestivum; details: rated 4-5 weeks after treatment
Text: as §2, §3, §4

[10] = tested on: ECHORC (Watergrass (Calif.)); experiment: Preemergence weed control under flooded paddy conditions; assay type: in vivo, Echinochloa oryzoides; details: rated 3-4 weeks after treatment
Outline: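 Herbicidal effect is scored visually on a 0-9 scale against an untreated control, three to four weeks after compounds are pipetted into the flood water (1.5 to 3 cm deep) over seeds planted in silt loam at 0.5 cm depth. Rates: about 0.0313 to 0.500 kg/ha.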

[11] = tested on: MOOVA (Monochoria); experiment: as above; assay type: in vivo, Monochoria vaginalis; details: rated 3-4 weeks after treatment
Outline: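 Silt loam, seeds in top 0.5 cm; flood held 1.5-3 cm; test cpd as acetone/water 50/50 into flood water, ~0.0313-0.500 kg/ha a.i.; greenhouse 3-4 wk; visual 0-9 score vs control.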

CC(C)COC(=O)CN1C(=O)CSC1=Nc1cc(-n2c(=O)cc(C(F)(F)F)n(C)c2=O)c(F)cc1Cl [Compound 121, Isobutyl 2-{{2-chloro-5-[3,6-dihydro-3-methyl-2,6-dioxo-4-(trifluoromethyl)-1(2H)-pyrimidinyl]-4-fluorophenyl}imino}-4-oxo-3-thiazolidineacetate]
5.0: Herbicidal rating TRZAWR ([3]; rate 0.0625 kg/ha) | Preemergence herbicidal rating ORYSAT ([8]; rate 0.2500 kg/ha) | herbicidal effect rating, ECHORC ([10]; 0.0625 kg/ha)
8.0: Preemergence herbicidal rating TRZAWR ([9]; rate 0.2500 kg/ha)
4.0: Herbicidal rating TRZAWR ([3]; rate 0.0313 kg/ha) | Preemergence herbicidal rating IPOHE ([5]; rate 0.1250 kg/ha) | Preemergence herbicidal rating ECHCG ([6]; rate 0.0625 kg/ha) | Preemergence herbicidal rating ORYSAT ([8]; rate 0.1250 kg/ha) | herbicidal effect rating, ECHORC ([10]; 0.0313 kg/ha)
9.0: Herbicidal rating ABUTH ([1]; rate 0.0156 kg/ha) | Herbicidal rating ABUTH ([1]; rate 0.0313 kg/ha) | Herbicidal rating ABUTH ([1]; rate 0.0625 kg/ha) | Herbicidal rating IPOHE ([2]; rate 0.0156 kg/ha) | Herbicidal rating IPOHE ([2]; rate 0.0313 kg/ha) | Herbicidal rating IPOHE ([2]; rate 0.0625 kg/ha) | Preemergence herbicidal rating CHEAL ([4]; rate 0.0156 kg/ha) | Preemergence herbicidal rating CHEAL ([4]; rate 0.0313 kg/ha) | Preemergence herbicidal rating CHEAL ([4]; rate 0.0625 kg/ha) | Preemergence herbicidal rating CHEAL ([4]; rate 0.1250 kg/ha) | Preemergence herbicidal rating CHEAL ([4]; rate 0.2500 kg/ha) | Preemergence herbicidal rating IPOHE ([5]; rate 0.2500 kg/ha) | Preemergence herbicidal rating ECHCG ([6]; rate 0.2500 kg/ha) | Preemergence herbicidal rating SETVI ([7]; rate 0.1250 kg/ha) | Preemergence herbicidal rating SETVI ([7]; rate 0.2500 kg/ha) | herbicidal effect rating, MOOVA ([11]; 0.0313 kg/ha) | herbicidal effect rating, MOOVA ([11]; 0.0625 kg/ha) | herbicidal effect rating, MOOVA ([11]; 0.1250 kg/ha) | herbicidal effect rating, MOOVA ([11]; 0.2500 kg/ha)
3.0: Herbicidal rating TRZAWR ([3]; rate 0.0156 kg/ha) | Preemergence herbicidal rating IPOHE ([5]; rate 0.0625 kg/ha) | Preemergence herbicidal rating SETVI ([7]; rate 0.0313 kg/ha) | Preemergence herbicidal rating TRZAWR ([9]; rate 0.0625 kg/ha)
7.0: Preemergence herbicidal rating ECHCG ([6]; rate 0.1250 kg/ha) | Preemergence herbicidal rating SETVI ([7]; rate 0.0625 kg/ha) | Preemergence herbicidal rating TRZAWR ([9]; rate 0.1250 kg/ha)
0.0: Preemergence herbicidal rating IPOHE ([5]; rate 0.0156 kg/ha) | Preemergence herbicidal rating IPOHE ([5]; rate 0.0313 kg/ha) | Preemergence herbicidal rating ECHCG ([6]; rate 0.0156 kg/ha) | Preemergence herbicidal rating ECHCG ([6]; rate 0.0313 kg/ha) | Preemergence herbicidal rating SETVI ([7]; rate 0.0156 kg/ha) | Preemergence herbicidal rating ORYSAT ([8]; rate 0.0156 kg/ha) | Preemergence herbicidal rating ORYSAT ([8]; rate 0.0313 kg/ha) | Preemergence herbicidal rating ORYSAT ([8]; rate 0.0625 kg/ha) | Preemergence herbicidal rating TRZAWR ([9]; rate 0.0156 kg/ha)
2.0: Preemergence herbicidal rating TRZAWR ([9]; rate 0.0313 kg/ha)
6.0: herbicidal effect rating, ECHORC ([10]; 0.1250 kg/ha) | herbicidal effect rating, ECHORC ([10]; 0.2500 kg/ha)
